From US8969549B2, “Antioxidant small molecules aimed at targeting metal-based oxidative stress in neurogenerative disorders” (Texas Christian University, priority 2013, dated 2015)

Assays:
[1] = ABTS radical assay standardized against Trolox; type: biochemical; details: ligand concentration 100 μM
FRDA cells [2] = assay: Calcein AM viability assay with BSO; type: cell-based, human; details: Homo sapiens, 48 hour BSO 1 mM; for viability at 0.001 µM: compound 1 nM final, read-out: cell viability compared to untreated control cells
Experimental: (§1) FIG. 5 is a graph showing a Calcien AM viability assay of FRDA cells after 48 hour exposure to BSO [1 mM] with 1-4 [1 nM final].
(§2) FIG. 10 is a graph showing Calcein AM viability assay of FRDA cells after 48 hour exposure to BSO [1 mM] followed by addition of 2 [various concentrations].
(§3) FRDA cells have higher levels of ROS due to mitochondrial misfunction associated with frataxin expression and therefore serve as a good model for ROS protection. […] Calcein AM, a non-fluorescent, hydrophobic compound that easily permeates intact, live cells, was used as an indicator for cell viability.
(§4) This dose response is visualized in the fluorescent cell images shown in FIG. 11 with increased cell survival corresponding to increasing 2 in the nM range.

[3] = log K constants with Cu^II; type: binding
Text: (§5) The ligand is the backbone to PCTA, a potential MRI contrast agent explored in recent years and has been repurposed for Applicant's work.

[4] = log K constants with Zn^II; type: binding
Text: as §5

Aβ1-40 [5] = assay: Turbidity assay of metal-induced amyloid aggregation; type: biochemical; details: for disaggregation of pre-formed metal-induced Aβ1-40 aggregates (turbidity): copper(II) or zinc(II) aggregates, ligand added afterwards
Text: Metal ions (copper and zinc) bind to a histidine rich domain in amyloid producing Aβ in the form of insoluble plaques. This process has been comprehensively studied and described in a number of recent reviews. The aggregation of amyloid can be followed by simple spectroscopic techniques such as turbidity and tyrosine fluorescence studies. These methods were used to investigate the ability of 1 to dissociate pre-formed amyloid aggregates upon addition of metal ions, as well as prevent amyloid aggregation.
Metal ions bind to a histidine rich domain in amyloid producing Aβ in the form of insoluble plaques. This process has been extensively studied and described in a number of recent reviews.

[6] = Cu-ascorbate redox system with coumarin-3-carboxylic acid (CCA); type: biochemical; details: added after two minutes co-incubation with CCA
Text: As increased levels of ROS are associated with AD, Applicant's set out to investigate the antioxidant character of 1 compared to the heterocycles 2 and/or 3. […] Moreover, many of the pathways proposed to produce ROS leading to AD pathology involve metal ions. Applicant's therefore utilized the Cu-ascorbate redox system, Scheme 1, as a model to determine if the ligands could halt copper based redox activity under aerobic conditions:
Faller and co-workers employed this system to investigate the redox chemistry of amyloid systems with Cu. Coumarin-3-carboxylic acid (CCA), which generates fluorescent 7-hydroxy-CCA in the presence of hydroxyl radicals, was used to quantify the reduction of oxygen by copper redox-cycling in the presence of ascorbate.

[7] = DPPH radical quenching assay; type: biochemical
Text: Compound 2 (Chart 2) exists largely as the pyridol tautomer as confirmed by NMR. The reactivity of pyridol/pyridone based compounds such as chelidamic acid have shown reactivity with OH radicals in solution to form bis-pyridones and is a different mechanism than pyridine based compounds such as 1 (Chart 2). This reactivity is attributed to the enhanced antioxidant capacity observed. Chelidamic acid is the pyridone congener to the starting material used to produce 1. Therefore similar methodologies to produce 2 in gram scale quantities were employed.
As radicals are one product of miscompartmentalized metal ions, radical scavenging capability of compounds 1-3 (Chart 4) was tested using the DPPH assay. DPPH (2,2-diphenyl-1-picrylhydrazyl), is a dark purple (λmax=540 nm), stable free radical in solution that can be reduced to DPPHH in the presence of molecules with radical scavenging activity. This process results in a color change from dark purple to light yellow and can be followed spectroscopically by the decrease of the band at 540 nm. Applicants have, therefore, utilized this method to measure radical scavenging capability of their own organic molecules. BHT (butylhydroxytoluene) was used as a positive control due to its known antioxidant properties.
DPPH stock solution was prepared by dissolving 25 mg in 100 mL of absolute EtOH. The working radical solution was prepared by dilution with absolute EtOH to an absorbance of 1.3 at 512 nm. Stock solutions of the compounds tested were dissolved in DI H2O and EtOH 95% respectively and serial dilutions were made to get different concentrations. For the analysis 2 mL of the solutions were incubated with 2 mL of DPPH working solutions in the dark for 24 h. as well as 2 mL of DPPH working solution with 2 mL of H2O or EtOH to serve as blank. Analysis of the solutions was performed as follows: 1 mL of the sample solution was diluted with 1 mL of H2O shaken and the absorbance was measured at 515 nm.

Aβ1-40 [8] = assay: Tyr^10 fluorescence of Aβ1-40; type: biochemical
Text: FIG. 2 is a graph showing the addition of ligands 1-4 to aggregated Aβ results in reconstitution of Tyr^10 fluorescence which was decreased due to aggregate formation.
To further determine the capability of 1 to prevent or disrupt metal-ion induced amyloid aggregation, Applicant's studied Tyr fluorescence intensity. Recent reports have also utilized the natural fluorescence of the native Tyr^10 in the Aβ1-40 sequence to study the conformational dynamics of amyloid folding as it relates to AD and/or production of H2O2. As Tyr^10 is located within proximity to the metal binding pocket in Aβ1-40 the fluorescence intensity of the phenolic side chain decreases during the folding process due to environmental changes that occur locally. This work was supported by circular dichroism spectra, which verified that fluorescence intensity decreased as the conformation of amyloid changed to beta-sheets. […] Applicant's hypothesis was that Tyr fluorescence intensity should be restored to control levels upon addition of compounds 1-4 (Chart 1) to a solution of pre-formed metal aggregates, as shown below in FIG. 2. […] Similar results were also obtained for amyloid samples co-incubated with 1-4 prior to metal ion addition.
The macrocyclic compound 2 (Chart 2) is also a chelator capable of preventing metal-induced amyloid formation as well as disaggregation. Metal ions bind to a histidine rich domain in amyloid producing Aβ in the form of insoluble plaques. This process has been extensively studied and described in a number of recent reviews. […] Moreover, amyloid aggregates formed by metal ion co-incubation can be disaggregated by the addition of compounds 1 or 2 (FIG. 12b).

FRDA cells [9] = assay: DCFH-DA ROS assay with BSO; type: cell-based, human
Experimental: FIG. 6 is a graph showing DCFH-DA fluorescent response in FRDA cells after 12 hours exposure to BSO [1 mM] with 1-4 [4 nM].
FIG. 7 is a graph of DCFH-DA fluorescent response in FRDA cells after 12 hours exposure to BSO [1 mM] showing dose dependence with 1.
FIG. 9 is a graph of DCFH-DA fluorescent response in FRDA cells after 12 hours exposure to BSO [1 mM] showing dose dependence with 1 and 2.
The antioxidant activity of compound 1 compared to compounds 2-3 (Chart 1) was then studied using the cell-permeable fluorophore 2,7′-Dichlorodihydrofluorescin diacetate (DCFH-DA) as an indicator for ROS. DCFH-DA diffuses into cells and is deacetylated by cellular esterases to non-fluorescent 2′,7′-Dichlorodihydrofluorescin (DCFH). This species is subsequently oxidized to the highly fluorescent 2′,7′-Dichlorodihydrofluorescein (DCF) species in the presence of ROS. The fluorescent intensity is directly proportional to the amount of ROS present in cell cytosol. BSO (2-amino-4-(butylsulfonimidoyl)butanoic acid) was used to inhibit the first step of de novo glutathione synthesis, allowing us to observe the elevated intra-cellular [ROS] are thereby observed.
Cellular studies were carried out to evaluate the intra-cellular antioxidant efficacy and toxicity of compound 2 (Chart 2) compared to 1 using the cell-permeable fluorophore 2,7′-dichlorodihydrofluorescin diacetate (DCFH-DA) as an indicator for ROS. DCFH-DA diffuses into cells and is deacetylated by cellular esterases to non-fluorescent 2′,7′-dichlorodihydrofluorescin (DCFH) which is subsequently oxidized to the highly fluorescent 2′,7′-dichlorodihydrofluorescein (DCF) species in the presence of ROS. The fluorescence intensity is directly proportional to the amount of ROS present in cell cytosol.^11 BSO (2-amino-4-(butylsulfonimidoyl)butanoic acid) is a commonly used model for oxidative stress via inhibition of cytosolic glutathione synthesis resulting in elevated intra-cellular [ROS] and an increased fluorescent signal in the presence of DCFH (FIG. 9).

MTT cytotoxicity assay = type: cell-based; details: mouse, HT-22 hippocampal neuronal cells, HT-22 cells
Experimental: As these compounds show potential for future in vivo studies, the 3-(4,5-dimethythiazol-2-yl)-2,5-diphenyl tetrazolium bromide (MTT) assay was performed in order to test compounds 2, 3 of Chart 4 for cytotoxicity with HT-22 cells, which is a hippocampal neuronal cell line extracted from mice. This is a colorimetric assay that measures the mitochondrial activity of living cells in which MTT crosses into the mitochondria where it is reduced to media insoluble formazan (dark purple), which is later solubilized in DMSO and measured spectroscopically (λmax=540 nm). Since the reduction of MTT can only occur in living cells with undamaged mitochondria, this is a good assay to measure cell proliferation and cytotoxicity.
For the biological assays mouse hippocampal HT-22 cell line was used, incubated them at 37° C. in a humidified atmosphere 5% CO2, with Dulbecco's Modified Eagle Medium (500 ml) containing penicillin/streptomycin 100× (5 ml), Glutamine (100 mM, 5 ml), charcoal strip fetal bovine serum. […]
(3-(4,5-dimethylthiazol-2-yl)-2,5-diphenyltetrazolium bromide) cells were seeded in a 96 well plate with a density of 5000 cells per well (in 100 μL per well). […] Media is discarded again and 100 μL of DMSO are added to each well, rocked for 5 minutes and the absorbance (A510) was measured using a Molecular Devices Kinetic Microplate Reader.

[10] = Calcein AM viability assay with BSO; type: cell-based, human; details: human, FRDA cells (fibroblasts from a Friedreich's Ataxia patient), BSO 1 mM alone, read-out: cell viability compared to control cells, BSO-alone
Experimental: as §1, §2, §3, §4

[11] = LA/DHLA; cited from earlier work

For `C1CNCCNCCNCCN1` [Compound 2 (Chart 1)], the “Trolox equivalents (ABTS radical)” value [1] was 0.23 Trolox equivalents, the viability at 0.001 µM (FRDA cells [2]) was > 60% and the “log K constants Cu^II” value [3] was 23. For the same compound, the “log K constants Zn^II” value [4] was 16 and the “disaggregation of pre-formed metal-induced Aβ1-40 aggregates (turbidity)” value (Aβ1-40 [5]) was “Aβ dis-aggregating agents, which Applicant's studies corroborate”.

For “Aβ1-40: beta-amyloid peptide 1-40 with histidine rich metal binding site [reference compound]”, the “7-hydroxy-CCA signal after addition to running Cu-ascorbate system” value [6] was “leveling of the 7-hydroxy-CCA signal”.

For `O=C(O)CN(CCN(CC(=O)O)CC(=O)O)CC(=O)O` [4 (Chart 1)], the “Trolox equivalents (ABTS radical)” value [1] was 0.15 Trolox equivalents, the viability at 0.001 µM (FRDA cells [2]) was > 60% and the “log K constants Cu^II” value [3] was 9.18. The “log K constants Zn^II” value [4] was 8.41.

With `C1CNCCNCCNCCN1` [cyclen, 1,4,7,10-tetraazacyclododecane, reference compound] the “quenching of the DPPH radical” value ([7]; 1250 μM) was “no activity”.

With `Oc1cc2nc(c1)CNCCNCCNC2` [Compound 2 (Chart 2)] the “ability to reduce free radicals in solution (DPPH) versus 1” value [7] was “enhanced ability to reduce free radicals in solution”, the “reconstitution of Tyr^10 fluorescence of aggregated Aβ1-40” value (Aβ1-40 [8]; ligand added to pre-formed metal aggregates) was “equally effective” and the “prevention of loss of Tyr^10 fluorescence of Aβ1-40” value (Aβ1-40 [8]; ligand co-incubated prior to metal ion addition, 24 hours) was “equally effective”. The EC50 (FRDA cells [2]; read-out: EC50 protection against BSO assault (Calcein AM)) was 0.0315 ± 0.00496 µM, the “decrease of [ROS] compared to the untreated cells” value (shortened to “decrease of [ROS]”) (FRDA cells [9]; 1.25 nM) was 33% and the “decrease of [ROS]” value (FRDA cells [9]; 12.5 nM) was 58%. The “decrease of [ROS]” value (FRDA cells [9]; 125 nM) was 75%, the “decrease of [ROS]” value (FRDA cells [9]; 1.25 μM) was 87% and the “disaggregation of pre-formed metal-induced Aβ1-40 aggregates (turbidity)” value (Aβ1-40 [5]) was “disaggregated”. The “prevention of metal-induced Aβ1-40 aggregation (turbidity)” value (Aβ1-40 [5]; ligand co-incubated with amyloid before copper(II) or zinc(II) addition) was “prevents formation of aggregations”.

For `O=C(NCCNc1nc(N2CCNCCNCCNCC2)nc(N2CCNCCNCCNCC2)n1)c1cc2ccccc2oc1=O` [3 (Chart 4), N-(2-((4,6-di(1,4,7,10-tetraazacyclododecan-1-yl)-1,3,5-triazin-2-yl)amino)ethyl)-2-oxo-2H-chromene-3-carboxamide], the “quenching of the DPPH radical” value ([7]; concentration dependent, concentrations not given) was 52-64% and the EC50 at 48 h (MTT cytotoxicity assay) was 125 µM.

With `CCCCS(=N)(=O)CCC(N)C(=O)O` (centres unmarked) [BSO, 2-amino-4-(butylsulfonimidoyl)butanoic acid, reference compound] the viability at 48 h, 1 mM [10] was ~45% and the “increase in ROS, BSO-treated cells (positive control)” value (FRDA cells [9]; BSO 1 mM alone) was ~1.8 fold.

In the case of `O=C(O)CCCCC1CCSS1` (stereo not drawn) [LA, α-lipoic acid], the redox potential [11] is given as −320 mV.
